Target: Tyrosine-protein kinase JAK2 (Homo sapiens, UniProt O60674)
Assay: JAK2 Assay: JAK2 (5-20 mU diluted in 50 mM Tris pH 7.5, 0.1 mM EGTA, 0.05% 0-mercaptoethanol, 1 mg/ml BSA) is assayed against PDKtide ([…]-[…]) in a final volume of 25.5 μl containing 50 mM Tris pH 7.5, 0.1 mM EGTA, 0.05% 0-mercaptoethanol, 100 μM substrate peptide, 10 mM magnesium acetate and 0.005 mM [33P-γ-ATP] (50-1000 cpm/pmole) and incubated for 30 min at room temperature Assays are stopped by addition of 5 μl of 0.5 M (3%) orthophosphoric acid and then harvested onto P81 Unifilter plates with a wash buffer of 50 mM orthophosphoric acid.

Chain of Tyrosine-protein kinase JAK2 (O60674 whole entry): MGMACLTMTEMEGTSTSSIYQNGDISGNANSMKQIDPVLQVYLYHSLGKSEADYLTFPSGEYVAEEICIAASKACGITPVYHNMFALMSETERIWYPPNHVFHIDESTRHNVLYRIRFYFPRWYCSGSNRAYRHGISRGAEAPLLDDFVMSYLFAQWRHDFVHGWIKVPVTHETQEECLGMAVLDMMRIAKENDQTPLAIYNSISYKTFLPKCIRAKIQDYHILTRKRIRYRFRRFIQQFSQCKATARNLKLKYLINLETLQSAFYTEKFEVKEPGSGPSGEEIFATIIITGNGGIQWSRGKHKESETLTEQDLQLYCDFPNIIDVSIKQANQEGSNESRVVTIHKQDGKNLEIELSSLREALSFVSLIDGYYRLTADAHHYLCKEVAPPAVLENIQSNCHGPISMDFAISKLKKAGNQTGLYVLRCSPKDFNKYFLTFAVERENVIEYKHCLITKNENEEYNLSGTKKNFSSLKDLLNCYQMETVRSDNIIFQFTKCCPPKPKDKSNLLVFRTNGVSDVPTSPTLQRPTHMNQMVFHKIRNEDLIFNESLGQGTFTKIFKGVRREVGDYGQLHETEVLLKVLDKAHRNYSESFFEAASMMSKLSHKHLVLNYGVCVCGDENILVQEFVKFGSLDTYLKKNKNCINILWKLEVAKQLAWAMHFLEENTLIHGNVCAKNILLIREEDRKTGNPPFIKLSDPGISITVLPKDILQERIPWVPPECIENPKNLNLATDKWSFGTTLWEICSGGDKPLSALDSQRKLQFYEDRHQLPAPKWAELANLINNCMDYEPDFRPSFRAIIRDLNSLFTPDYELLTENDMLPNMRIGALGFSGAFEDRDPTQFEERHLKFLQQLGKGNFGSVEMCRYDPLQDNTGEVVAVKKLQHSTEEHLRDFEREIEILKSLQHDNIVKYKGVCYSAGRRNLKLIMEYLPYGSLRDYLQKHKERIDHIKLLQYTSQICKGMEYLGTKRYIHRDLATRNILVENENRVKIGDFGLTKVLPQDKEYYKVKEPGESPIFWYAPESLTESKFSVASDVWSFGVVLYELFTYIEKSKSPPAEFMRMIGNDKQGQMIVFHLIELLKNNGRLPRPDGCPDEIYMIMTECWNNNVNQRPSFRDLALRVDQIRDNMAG

Structure (SMILES) | IC50
Cc1cc2c(cn1)CN(C1CCOCC1)c1nccc3[nH]nc-2c13 | 0.89 µM
Fc1ccc2c(c1)-c1n[nH]c3ccnc(c13)N(C1CCOCC1)C2 | 0.9 µM
Cn1ncc2c1CN(C1CCOCC1)c1nccc3[nH]nc-2c13 | 0.92 µM
CCc1cc2c(cn1)CN(C1CCOCC1)c1nccc3[nH]nc-2c13 | 1.7 µM
c1cc2[nH]nc3c2c(n1)N(C1CCCC1)CCC3 | 6.6 µM

The next lines start with the values.

IC50 | Structure (SMILES)
4.5 µM | CC(C)N1CCC(N2Cc3c(cnn3C)-c3n[nH]c4ccnc2c34)CC1
5.4 µM | CCn1ncc2c1CN(C1CCN(C(C)C)CC1)c1nccc3[nH]nc-2c13
2.1 µM | CC(C)n1ncc2c1CN(C1CCOCC1)c1nccc3[nH]nc-2c13
1.5 µM | CCn1ncc2c1CN(C1CCOCC1)c1nccc3[nH]nc-2c13
